Source: patent publication US20120029187A1, “HALOALKYLSULFONANILIDE DERIVATIVE” (Nissan Chemical Industries, Ltd., priority 2009, published 2012)

Key:
Format in all cases: in vivo
barnyardgrass [1] = experiment: Test Example 1: herbicidal effects in preemergence treatment under submerged conditions; conditions: dose 2.52 g/a
Method in brief: (§1)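 Alluvial soil flooded to 4 cm depth; barnyardgrass, bulrush and ducksalad sown and 2.5-leaf rice seedlings transplanted. Same day, water-diluted emulsifiable concentrates applied to the water surface at set doses (g/a). Kept at 25–30 °C in greenhouse; effects scored 0–5 by mortality after three weeks.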

bulrush [2] = experiment: as above; conditions: dose 2.52 g/a
Method in brief: as §1

ducksalad [3] = experiment: as above; conditions: dose 2.52 g/a
Method in brief: as §1

transplanted rice = experiment: Test Example 1: preemergence treatment under submerged conditions, effect on crop; conditions: dose 2.52 g/a
Method in brief: as §1

barnyardgrass [4] = experiment: Test Example 2: herbicidal effects during the vegetation period under submerged conditions; conditions: treatment during the vegetation period under submerged conditions; dose 2.52 g/a
Method in brief: (§2)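 Barnyardgrass, bulrush and ducksalad were co-sown in alluvial soil flooded to 4 cm and grown in a greenhouse at 25 to 30° C. At the 1- or 2-leaf stage, water-diluted emulsifiable concentrates went onto the water surface at set doses (g/a). Herbicidal effect was scored three weeks later on a graded scale.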

bulrush [5] = experiment: as above; conditions: treatment during the vegetation period under submerged conditions; dose 2.52 g/a
Method in brief: as §2

ducksalad [6] = experiment: as above; conditions: treatment during the vegetation period under submerged conditions; dose 2.52 g/a
Method in brief: as §2

Italian ryegrass [7] = experiment: Test Example 3: herbicidal effects in soil treatment; conditions: dose 6.3 g/a
Method in brief: (§3)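 Seeds were sown in sterilized diluvial soil and covered with about 1.5 cm of soil. Compounds, formulated as emulsifiable concentrates and diluted with water, were sprayed evenly over the soil surface at set doses in g/a. Herbicidal effect was scored on a rating scale three weeks later.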

barnyardgrass [8] = experiment: as above; conditions: dose 6.3 g/a
Method in brief: as §3

common chickweed [9] = experiment: as above; conditions: dose 6.3 g/a
Method in brief: as §3

common lambsquater [10] = experiment: as above; conditions: dose 6.3 g/a
Method in brief: as §3

common ragweed [11] = experiment: as above; conditions: dose 6.3 g/a
Method in brief: as §3

giant foxtail [12] = experiment: as above; conditions: dose 6.3 g/a
Method in brief: as §3

large crabgrass [13] = experiment: as above; conditions: dose 6.3 g/a
Method in brief: as §3

posumbu knotweed [14] = experiment: as above; conditions: dose 6.3 g/a
Method in brief: as §3

redroot pigweed [15] = experiment: as above; conditions: dose 6.3 g/a
Method in brief: as §3

velvetleaf [16] = experiment: as above; conditions: dose 6.3 g/a
Method in brief: as §3

water foxtail [17] = experiment: as above; conditions: dose 6.3 g/a
Method in brief: as §3

wild oat [18] = experiment: as above; conditions: dose 6.3 g/a
Method in brief: as §3

Italian ryegrass [19] = experiment: Test Example 4: herbicidal effect in foliage treatment; conditions: dose 6.3 g/a, three weeks after application
Method in brief: (§4)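 Seeds were spot-sown in boxes of sterilized diluvial soil and raised in a greenhouse (25 to 30° C) for 14 days before a single foliar application. Compounds were applied as emulsifiable concentrates diluted with water, at predetermined doses in g/a. Injury was graded three weeks post-spray.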

barnyardgrass [20] = experiment: as above; conditions: dose 6.3 g/a, three weeks after application
Method in brief: as §4

beadstraw = experiment: as above; conditions: dose 6.3 g/a, three weeks after application
Method in brief: as §4

common chickweed [21] = experiment: as above; conditions: dose 6.3 g/a, three weeks after application
Method in brief: as §4

common lambsquater [22] = experiment: as above; conditions: dose 6.3 g/a, three weeks after application
Method in brief: as §4

common ragweed [23] = experiment: as above; conditions: dose 6.3 g/a, three weeks after application
Method in brief: as §4

giant foxtail [24] = experiment: as above; conditions: dose 6.3 g/a, three weeks after application
Method in brief: as §4

large crabgrass [25] = experiment: as above; conditions: dose 6.3 g/a, three weeks after application
Method in brief: as §4

posumbu knotweed [26] = experiment: as above; conditions: dose 6.3 g/a, three weeks after application
Method in brief: as §4

redroot pigweed [27] = experiment: as above; conditions: dose 6.3 g/a, three weeks after application
Method in brief: as §4

velvetleaf [28] = experiment: as above; conditions: dose 6.3 g/a, three weeks after application
Method in brief: as §4

water foxtail [29] = experiment: as above; conditions: dose 6.3 g/a, three weeks after application
Method in brief: as §4

wild oat [30] = experiment: as above; conditions: dose 6.3 g/a, three weeks after application
Method in brief: as §4

CCOC(=O)N(c1ccccc1CN1CCOCC1=O)S(=O)(=O)C(F)(F)F [Compound I-2, 4-[2-(N-ethoxycarbonyl-N-trifluoromethanesulfonyl)aminobenzyl]-1,4-oxazinan-3-one]
A: barnyardgrass, herbicidal effect (evaluation scale 0-5) (barnyardgrass [1]): 5 (mortality of 90% or above (nearly complete death)) | B: bulrush, herbicidal effect (evaluation scale 0-5) (bulrush [2]): 5 (mortality of 90% or above (nearly complete death)) | C: ducksalad, herbicidal effect (evaluation scale 0-5) (ducksalad [3]): 5 (mortality of 90% or above (nearly complete death)) | a: transplanted rice, effect on crop (evaluation scale 0-5) (transplanted rice): 1 (mortality of at least 5% and less than 20%) | A: barnyardgrass, herbicidal effect (evaluation scale 0-5) (barnyardgrass [4]): 5 (mortality of 90% or above (nearly complete death)) | B: bulrush, herbicidal effect (evaluation scale 0-5) (bulrush [5]): 5 (mortality of 90% or above (nearly complete death)) | C: ducksalad, herbicidal effect (evaluation scale 0-5) (ducksalad [6]): 5 (mortality of 90% or above (nearly complete death)) | H: Italian ryegrass, herbicidal effect (evaluation scale 0-5) (Italian ryegrass [7]): 5 (mortality of 90% or above (nearly complete death)) | A: barnyardgrass, herbicidal effect (evaluation scale 0-5) (barnyardgrass [8]): 5 (mortality of 90% or above (nearly complete death)) | N: common chickweed, herbicidal effect (evaluation scale 0-5) (common chickweed [9]): 5 (mortality of 90% or above (nearly complete death)) | L: common lambsquater, herbicidal effect (evaluation scale 0-5) (common lambsquater [10]): 5 (mortality of 90% or above (nearly complete death)) | J: common ragweed, herbicidal effect (evaluation scale 0-5) (common ragweed [11]): 5 (mortality of 90% or above (nearly complete death)) | E: giant foxtail, herbicidal effect (evaluation scale 0-5) (giant foxtail [12]): 5 (mortality of 90% or above (nearly complete death)) | D: large crabgrass, herbicidal effect (evaluation scale 0-5) (large crabgrass [13]): 5 (mortality of 90% or above (nearly complete death)) | M: posumbu knotweed, herbicidal effect (evaluation scale 0-5) (posumbu knotweed [14]): 5 (mortality of 90% or above (nearly complete death)) | K: redroot pigweed, herbicidal effect (evaluation scale 0-5) (redroot pigweed [15]): 5 (mortality of 90% or above (nearly complete death)) | I: velvetleaf, herbicidal effect (evaluation scale 0-5) (velvetleaf [16]): 5 (mortality of 90% or above (nearly complete death)) | G: water foxtail, herbicidal effect (evaluation scale 0-5) (water foxtail [17]): 5 (mortality of 90% or above (nearly complete death)) | F: wild oat, herbicidal effect (evaluation scale 0-5) (wild oat [18]): 3 (mortality of at least 40% and less than 70%) | H: Italian ryegrass, herbicidal effect (Italian ryegrass [19]): 4 (mortality of at least 70% and less than 90%) | A: barnyardgrass, herbicidal effect (barnyardgrass [20]): 5 (mortality of 90% or above (nearly complete death)) | O: beadstraw, herbicidal effect (beadstraw): 5 (mortality of 90% or above (nearly complete death)) | N: common chickweed, herbicidal effect (common chickweed [21]): 4 (mortality of at least 70% and less than 90%) | L: common lambsquater, herbicidal effect (common lambsquater [22]): 4 (mortality of at least 70% and less than 90%) | J: common ragweed, herbicidal effect (common ragweed [23]): 3 (mortality of at least 40% and less than 70%) | E: giant foxtail, herbicidal effect (giant foxtail [24]): 5 (mortality of 90% or above (nearly complete death)) | D: large crabgrass, herbicidal effect (large crabgrass [25]): 5 (mortality of 90% or above (nearly complete death)) | M: posumbu knotweed, herbicidal effect (posumbu knotweed [26]): 4 (mortality of at least 70% and less than 90%) | K: redroot pigweed, herbicidal effect (redroot pigweed [27]): 3 (mortality of at least 40% and less than 70%) | I: velvetleaf, herbicidal effect (velvetleaf [28]): 5 (mortality of 90% or above (nearly complete death)) | G: water foxtail, herbicidal effect (water foxtail [29]): 5 (mortality of 90% or above (nearly complete death)) | F: wild oat, herbicidal effect (wild oat [30]): 3 (mortality of at least 40% and less than 70%)
